Assays:
[1] = test system: RAW264.7 murine macrophage cell line, PGE2 production; experiment: Inhibition of PGE2 synthesis in LPS-stimulated RAW264.7 macrophages (EIA); format: cell-based
Experimental: (§1) The anti-inflammatory effect of a mixture of Cajanus in combination with glucosamine sulfate was determined in cellular assays by measuring the inhibition of the synthesis of nitric oxide and/or pro-inflammatory prostaglandins (PGE2). PGE2 plays a critical role in the inflammation process, while nitric oxide (NO) is a hallmark of inflammation in various chronic inflammatory diseases including various forms of arthritis, gastro-intestinal diseases and metabolic syndrome X (Creamer P et al 1997 Lancet 350:503-508; Vuolteenaho et al. 2007 Scand. J Rheumatology 36:247-258).
(§2) The effects on the inflammatory response were tested in cellular assays using a murine macrophage cell line, RAW264.7. […]
(§3) Concentrations of nitrite were determined by the Griess reaction using sodium nitrite as standard. Briefly, 50 ul of supernatant was mixed with Griess reagent 1 (25 uL) and Griess reagent 2 (25 uL), centrifuged and the optical density at 540 nm determined. PGE2 secreted into the cell culture medium was determined by EIA obtained from Cayman Chemicals (Ann Harbor, Wis., USA) and used according to the manufacturer's instructions. […] IC50 values for LPS-stimulated cells were calculated using a […] least-square fitting equation [y=A+((B−A)/(1+((C−x)̂D))] for best-fit curves (Excel fit software program).

[2] = test system: RAW264.7 murine macrophage cell line, nitric oxide production; experiment: Inhibition of nitric oxide production in LPS-stimulated RAW264.7 macrophages (Griess reaction); isobologram for combinations; format: cell-based
Experimental: as §1, §2
as §3, with “program). […]” for “program).”

[3] = Mus musculus, single substances, LPS 1 ug/ml, 24 hours, RAW264.7

## N[C@H]1C(O)O[C@H](CO)[C@@H](O)[C@@H]1O.O=S(=O)(O)O (stereo partly shown) [Glucosamine sulfate]
[1]; LPS-stimulated RAW264.7
  effect on PGE2 production (in words): no or only a marginal anti-inflammatory
[1]; [3]
  IC50: > 100 µg/mL
[2]; LPS-stimulated RAW264.7
  effect on NO production (in words): no or only a marginal anti-inflammatory
[2]; [3]
  IC50: > 100 µg/mL

— US20110300240A1, “CAJANUS EXTRACTS AND GLUCOSAMINE FOR INFLAMMATORY DISORDERS” (priority 2009, published 2011)
